Source: patent US6479653B1, “Compositions and method for regulation of transcription” (ARIAD Gene Therapeutics, Inc., priority 1997, dated 2002)
“Also recorded” adds a separate entry of the source.

Tests used:
reporter gene = test: Transcription assay of p65 activation domain mutants; type: cell-based; settings: for potency of p65 activation domain to induce the reporter gene, relative to wild type: mutated p65 activation domain
From the text: Thus, in one embodiment of this invention, mutations are introduced into the activation domain by standard techniques known in the art, such as site-directed PCR based mutagenesis. In this embodiment, one to five, in some cases one to three, alterations in peptide sequence can be introduced into the DNA coding for the activation domain. Each of these mutations either alone or in combination with one or more other mutations may be readily assayed for its ability to induce the transcription of either transiently transfected or stably integrated target reporter gene constructs. For instance, a construct encoding a fusion protein containing multiple copies of the modified sequence and a DNA binding domain can be introduced into cells and the activity of the encoded fusion protein measured in transcription assays (with a responsive reporter gene construct) and compared to analogous fusion proteins containing wild-type activation domain sequence or a different mutation of interest.
The foregoing is illustrated in the case of the p65 transcription activation domains. Constructs are prepared encoding fusion proteins containing one or more p65 transcription activation domains and a DNA binding domain. The p65 domains may be wild-type (as a control) or may contain any of a variety of alterations in peptide sequence. These mutations can generally be introduced into a variety of p65-derived transcription activation domains. For example, M1 mutations can be introduced into plasmids carrying p65 activation domain coding regions between amino acids 533 and 550, or 361 and 550, or 280 and 550.
Exemplary mutations for p65 transcription activation domains include those intended to increase the potency of the p65 activation domain (including the M1, M2, M6, M7 and M8 mutations) and those intended to decrease the potency (generally slightly) of the activation domain. […] Mutations of the M4 and M5 class change the conserved serine and proline residues between amino-acids 361 and 450. […] In GST pull down assays, the region of the M4 and M5 mutations interacts with TFIIA. […] Thus, mutations for the practitioner to bear in mind include, but are not limited to, the following: […]

[1] = tested on: GAL4 responsive reporter gene; test: Rapamycin-induced expression of stably integrated GAL4-responsive SEAP reporter in transfected HT1080 B cells; type: cell-based

Molecule | expression of target genes when fused to other acidic type activation domains (reporter gene) | potency of p65 activation domain to induce the reporter gene, relative to wild type (reporter gene) | further results
401-GALAQAGAGVG (SEQ ID NO:13) [M5] | synergistically | very small effect | –
CO[C@H]1C[C@@H]2CC[C@@H](C)[C@@](O)(O2)C(=O)C(=O)N2CCCC[C@H]2C(=O)O[C@H]([C@H](C)C[C@@H]2CC[C@@H](O)[C@H](OC)C2)CC(=O)[C@H](C)/C=C(\C)[C@@H](O)[C@@H](OC)C(=O)[C@H](C)C[C@H](C)/C=C/C=C/C=C/1C [rapamycin, reference compound] | – | – | rapamycin concentration giving peak levels of reporter gene expression ([1]; GF4 with RS, RMTS or RMTSV): 10 nM
377-GALALGAGGQVL(SEQ ID NO:11) [M4] | synergistically | very small effect | –
529-GDEDASSIADMDASALLSQI (SEQ ID NO:9) [F 533 and F 541 to alanine residues] | – | half of wild type level | –
RMTSV: VP16 activation domain fused to RMTS (FRB-minimal lac repressor tetramerization domain-p65) (protein, left off: small tags and cut ends) EMWHEGLEEASRLYFGERNVKGMFEVLEPLHAMMERGPQTLKETSFNQAYGRDLMEAQEWCRKYMKSGNVKDLTQAWDLYYHVFRRISKVKRKTTLAPNTQTASPRALADSLMQLARQVSRLESGQDEFPTMVFPSGQISQASALAPAPPQVLPQAPAPAPAPAMVSALAQAPAPVPVLAPGPPQAVAPPAPKPTQAGEGTLSEALLQLQFDDEDLGALLGNSTDPAVFTDLASVDNSEFQQLLNQGIPVAPHTTEPMLMEYPEAITRLVTGAQRPPDPAPAPLGAPGLPNGLLSGDEDFSSIADMDFSALLSQISSLGDELHLDGEDVAMAHADALDDFDLDMLGDGDSPGPGFTPHDSAPYGALDMADFEFEQMFTDALGIDEYGG | – | – | reporter gene expression at 1 nM rapamycin ([1]; GF4 DNA binding receptor, 1 nM rapamycin in the medium): induced the reporter gene expression robustly; reporter gene expression at the lowest level of activation domains expressed ([1]; fixed amount of GF4, 10 nM rapamycin): robust activation of reporter gene expression; also recorded: exceeded the level stimulated by the highest amount of RS fusion proteins
